Read-outs that look alike come from different tables or passages of the source.
Tests used:
EGFR (L858R T790M C797S) = molecular target: T1, EGFR (L858R T790M C797S) (Homo sapiens, UniProt P00533, C797S/L858R/T790M); assay: Biochemical EGFR inhibition assay (Caliper mobility shift), EGFR LRTMCS
T1 construct: purchased SignalChem E10-122VG
Method in brief: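 Kinase reactions proceed at 25° C. to 10%–20% conversion of total peptide, are terminated with 35 mM EDTA, and the phosphopeptide is resolved from substrate by electrophoretic mobility shift. Apparent IC50 values come from plotting percent activity against log compound concentration.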

[1] = molecular target: T2, intracellular phosphorylation of EGFR in NCI-H1975 cell line that harbors the EGFR L858R T790M mutations (Homo sapiens, UniProt P00533, L858R/T790M); assay: NCI-H1975 pEGFR AlphaLISA assay; assay type: cell-based; details: NCI-H1975 cells (EGFR L858R T790M), p-EGFR (Tyr1068), 4-5 hours incubation; read-out: Ext pEGFR H1975 GMean IC50 (nM) Protocol: @Pharmaron AlphaLISA (Num)
T2 construct: NCI-H1975 cell line that harbors the EGFR L858R T790M mutations (ATCC, CRL-5908); host or cells: NCI-H1975
Procedure: On the next day, the test compounds and DMSO control were added into H1975 cell plate followed by incubation at 37C/5% CO2 for 4-5 hours. […] Then 5 μL of a donor bead mix was added to each well followed by overnight incubation at room temperature in dark. On the next day, the plate was read at a compatible plate reader to obtain pEGFR signal. Percent of pEGFR inhibition was plotted against log concentration of compounds to generate IC50 values.

[2] = LRTMCS (PH) IC50 (nM) @ 1 mM ATP (Num), EGFR LRTMCS mutant

T1 sequence (P00533 25-1210 T790M/C797S/L858R): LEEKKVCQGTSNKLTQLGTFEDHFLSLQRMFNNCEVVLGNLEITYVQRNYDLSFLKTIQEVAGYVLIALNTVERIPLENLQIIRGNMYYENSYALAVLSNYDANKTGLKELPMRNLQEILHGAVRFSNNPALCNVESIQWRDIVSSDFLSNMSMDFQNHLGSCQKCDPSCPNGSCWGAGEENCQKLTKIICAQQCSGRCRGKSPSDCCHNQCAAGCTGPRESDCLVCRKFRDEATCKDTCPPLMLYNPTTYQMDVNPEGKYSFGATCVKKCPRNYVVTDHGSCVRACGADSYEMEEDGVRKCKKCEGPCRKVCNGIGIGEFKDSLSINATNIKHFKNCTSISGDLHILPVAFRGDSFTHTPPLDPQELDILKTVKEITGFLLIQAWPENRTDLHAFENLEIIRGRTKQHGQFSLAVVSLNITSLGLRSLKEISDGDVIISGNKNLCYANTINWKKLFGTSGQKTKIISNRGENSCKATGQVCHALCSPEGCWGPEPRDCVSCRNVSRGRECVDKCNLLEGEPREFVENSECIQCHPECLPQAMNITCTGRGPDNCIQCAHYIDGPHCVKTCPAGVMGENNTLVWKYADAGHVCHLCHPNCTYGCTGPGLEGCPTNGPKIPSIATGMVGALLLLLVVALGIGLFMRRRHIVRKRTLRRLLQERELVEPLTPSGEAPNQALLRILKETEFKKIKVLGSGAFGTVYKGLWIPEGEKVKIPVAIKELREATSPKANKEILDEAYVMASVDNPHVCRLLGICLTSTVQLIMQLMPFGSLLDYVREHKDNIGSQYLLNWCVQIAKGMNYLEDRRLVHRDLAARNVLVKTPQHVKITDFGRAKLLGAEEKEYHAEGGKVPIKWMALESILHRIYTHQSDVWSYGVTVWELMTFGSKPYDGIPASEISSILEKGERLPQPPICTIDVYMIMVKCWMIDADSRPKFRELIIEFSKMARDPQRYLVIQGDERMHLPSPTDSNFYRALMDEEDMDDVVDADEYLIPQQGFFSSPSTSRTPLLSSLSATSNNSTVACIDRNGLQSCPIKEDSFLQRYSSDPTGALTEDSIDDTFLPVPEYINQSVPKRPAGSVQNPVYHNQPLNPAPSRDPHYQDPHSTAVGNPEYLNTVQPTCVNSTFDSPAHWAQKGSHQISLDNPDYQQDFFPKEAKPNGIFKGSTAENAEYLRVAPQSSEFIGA
T2 sequence (P00533 25-1210 T790M/L858R): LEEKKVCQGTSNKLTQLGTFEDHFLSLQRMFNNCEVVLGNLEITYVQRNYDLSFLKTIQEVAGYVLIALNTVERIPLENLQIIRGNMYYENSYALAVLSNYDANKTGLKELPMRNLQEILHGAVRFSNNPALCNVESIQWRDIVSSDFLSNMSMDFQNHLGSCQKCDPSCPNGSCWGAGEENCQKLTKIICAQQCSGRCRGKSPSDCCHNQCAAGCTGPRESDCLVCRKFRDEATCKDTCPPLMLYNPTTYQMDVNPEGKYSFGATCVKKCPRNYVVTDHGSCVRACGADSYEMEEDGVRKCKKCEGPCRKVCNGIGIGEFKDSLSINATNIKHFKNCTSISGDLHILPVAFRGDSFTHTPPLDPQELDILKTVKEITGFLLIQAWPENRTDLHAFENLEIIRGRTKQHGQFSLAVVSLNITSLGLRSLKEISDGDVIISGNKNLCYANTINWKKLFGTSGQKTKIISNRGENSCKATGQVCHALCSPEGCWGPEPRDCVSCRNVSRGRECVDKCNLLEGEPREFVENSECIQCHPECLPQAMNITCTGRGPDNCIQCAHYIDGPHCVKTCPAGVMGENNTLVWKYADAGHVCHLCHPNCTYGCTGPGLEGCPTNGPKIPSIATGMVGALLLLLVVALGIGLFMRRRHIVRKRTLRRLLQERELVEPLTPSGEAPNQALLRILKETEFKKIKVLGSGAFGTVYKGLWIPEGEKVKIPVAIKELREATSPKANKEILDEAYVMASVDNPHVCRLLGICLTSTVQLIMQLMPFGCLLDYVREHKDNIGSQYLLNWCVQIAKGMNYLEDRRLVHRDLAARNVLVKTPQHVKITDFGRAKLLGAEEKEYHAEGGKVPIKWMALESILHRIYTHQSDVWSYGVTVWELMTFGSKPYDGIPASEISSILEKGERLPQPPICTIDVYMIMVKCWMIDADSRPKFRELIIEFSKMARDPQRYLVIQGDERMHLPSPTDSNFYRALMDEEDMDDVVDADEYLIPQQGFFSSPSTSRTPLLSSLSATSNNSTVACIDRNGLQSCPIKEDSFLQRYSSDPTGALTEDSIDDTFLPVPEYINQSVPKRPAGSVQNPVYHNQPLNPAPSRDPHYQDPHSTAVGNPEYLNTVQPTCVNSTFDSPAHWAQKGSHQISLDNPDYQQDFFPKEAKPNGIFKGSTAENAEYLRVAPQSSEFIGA

IC50 (EGFR (L858R T790M C797S); [2]) [nM]	IC50 [1] [nM]	IC50 (EGFR (L858R T790M C797S); read-out: LRTMCS (PH) IC50 (nM) @ 1 mM ATP (Num), EGFR LRTMCS mutant) [nM]	SMILES
< 15	30 to 50	–	CC(C)c1cnc(N2CC(S(C)(=O)=O)C2)c2cnc(Nc3ccnc(N4CC[C@@H](O)[C@@](C)(F)C4)n3)cc12 [Example 69, (3S,4R)-3-fluoro-1-(4-((5-isopropyl-8-(3-(methylsulfonyl)azetidin-1-yl)-2,7-naphthyridin-3-yl)amino)pyrimidin-2-yl)-3-methylpiperidin-4-ol]
15 to 20	> 50	–	CC(C)c1cnc(N2CC(O)(CC#N)C2)c2cnc(Nc3ccnc(N4CC[C@@H](O)[C@@](C)(F)C4)n3)cc12 [Example 72, 2-(1-(6-((2-((3S,4R)-3-fluoro-4-hydroxy-3-methylpiperidin-1-yl)pyrimidin-4-yl)amino)-4-isopropyl-2,7-naphthyridin-1-yl)-3-hydroxyazetidin-3-yl)acetonitrile]
15 to 20	30 to 50	–	CC(C)c1cnc(N2CC[C@]23CCN(C)C3)c2cnc(Nc3ccnc(N4CC[C@@H](O)[C@@](C)(F)C4)n3)cc12 (single isomer, unassigned) [Example 198, (3S,4R)-3-fluoro-1-(4-((5-isopropyl-8-((S)-6-methyl-1,6-diazaspiro[3.4]octan-1-yl)-2,7-naphthyridin-3-yl)amino)pyrimidin-2-yl)-3-methylpiperidin-4-ol or (3S,4R)-3-fluoro-1-(4-((5-isopropyl-8-((R)-6-methyl-1,6-diazaspiro[3.4]octan-1-yl)-2,7-naphthyridin-3-yl)amino)pyrimidin-2-yl)-3-methylpiperidin-4-ol]
< 15	< 10	–	C[C@H](CC#N)c1cnc(N2CC[C@H]2C)c2cnc(Nc3ccnc(N4CC[C@@H](O)[C@@](C)(F)C4)n3)cc12 (single isomer, unassigned) [Example 36, (R)-3-(6-((2-((3S,4R)-3-fluoro-4-hydroxy-3-methylpiperidin-1-yl)pyrimidin-4-yl)amino)-1-((R)-2-methylazetidin-1-yl)-2,7-naphthyridin-4-yl)butanenitrile or (S)-3-(6-((2-((3S,4R)-3-fluoro-4-hydroxy-3-methylpiperidin-1-yl)pyrimidin-4-yl)amino)-1-((R)-2-methylazetidin-1-yl)-2,7-naphthyridin-4-yl)butanenitrile]
< 15	20 to 30	–	CC(C)c1ccc(N2CC(Cn3ccnn3)C2)c2cnc(Nc3ccnc(N4CC[C@](C)(O)[C@H](F)C4)n3)cc12 [Example 40, (3R,4S)-1-(4-((8-(3-((1H-1,2,3-triazol-1-yl)methyl)azetidin-1-yl)-5-isopropylisoquinolin-3-yl)amino)pyrimidin-2-yl)-3-fluoro-4-methylpiperidin-4-ol]
–	10 to 20	< 15	CC(C)c1cnc(N2CC[C@@H](CS(C)(=O)=O)C2)c2cnc(Nc3ccnc(N4CC[C@@H](O)[C@@](C)(F)C4)n3)cc12 (single isomer, unassigned) [Example 208, (3S,4R)-3-fluoro-1-(4-((5-isopropyl-8-((R)-3-((methylsulfonyl)methyl)pyrrolidin-1-yl)-2,7-naphthyridin-3-yl)amino)pyrimidin-2-yl)-3-methylpiperidin-4-ol or (3S,4R)-3-fluoro-1-(4-((5-isopropyl-8-((S)-3-((methylsulfonyl)methyl)pyrrolidin-1-yl)-2,7-naphthyridin-3-yl)amino)pyrimidin-2-yl)-3-methylpiperidin-4-ol]
< 15	20 to 30	–	COC1CN(c2ncc(C(C)C)c3cc(Nc4ccnc(N5CC[C@@H](O)[C@@](C)(F)C5)n4)ncc23)C1 [Example 51, (3S,4R)-3-fluoro-1-(4-((5-isopropyl-8-(3-methoxyazetidin-1-yl)-2,7-naphthyridin-3-yl)amino)pyrimidin-2-yl)-3-methylpiperidin-4-ol]
30 to 100	20 to 30	–	CC(C)c1ccc(N2C[C@H](n3ccnn3)[C@H]2C)c2cnc(Nc3ccnc(N4CCC(C)(O)CC4)n3)cc12 [Example 129, 1-(4-((5-isopropyl-8-((2R,3S)-2-methyl-3-(1H-1,2,3-triazol-1-yl)azetidin-1-yl)isoquinolin-3-yl)amino)pyrimidin-2-yl)-4-methylpiperidin-4-ol]

— US20240382483A1, “HETEROCYCLIC EGFR INHIBITORS FOR USE IN THE TREATMENT OF CANCER” (Blueprint Medicines Corporation, priority 2021, published 2024)
